Source: PubChem BioAssay AID2060883 (Molecular Pharmacology Branch, DTP, NCI, 2025)

Test system: 843782-103-R-J1-PDC complex spheroid viability
Test: Anticancer human tumor 843782-103-R-J1-PDC patient-derived lung adenocarcinoma cell line growth inhibition [RAS]
Conditions: for viability, T/C: stronger effect = lower value
In short: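 Agents were tested in combination matrices in half-log decrements from a top concentration at or near clinical Cmax (10 microM if undetermined). Targets were multi-cell spheroids of tumour lines plus HUVEC and MSC stromal cells.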

[1] = curve of first compound, second compound 0.0316 µM
[2] = curve of first compound, second compound 0.1 µM
[3] = curve of first compound, second compound 0.316 µM
[4] = curve of first compound, second compound 1 µM
[5] = curve of first compound, second compound 3.16 µM
[6] = curve of first compound, second compound 10 µM
[7] = second compound 0.0316 µM, first compound 0.0316 µM
[8] = second compound 0.0316 µM, first compound 0.1 µM
[9] = second compound 0.0316 µM, first compound 0.316 µM
[10] = second compound 0.0316 µM, first compound 1 µM
[11] = second compound 0.1 µM, first compound 0.0316 µM
[12] = second compound 0.1 µM, first compound 0.1 µM
[13] = second compound 0.1 µM, first compound 0.316 µM
[14] = second compound 0.1 µM, first compound 1 µM
[15] = second compound 0.316 µM, first compound 0.0316 µM
[16] = second compound 0.316 µM, first compound 0.1 µM
[17] = second compound 0.316 µM, first compound 0.316 µM
[18] = second compound 0.316 µM, first compound 1 µM
[19] = second compound 1 µM, first compound 0.0316 µM
[20] = second compound 1 µM, first compound 0.1 µM
[21] = second compound 1 µM, first compound 0.316 µM
[22] = second compound 1 µM, first compound 1 µM
[23] = second compound 3.16 µM, first compound 0.0316 µM
[24] = second compound 3.16 µM, first compound 0.1 µM
[25] = second compound 3.16 µM, first compound 0.316 µM
[26] = second compound 3.16 µM, first compound 1 µM
[27] = second compound 10 µM, first compound 0.0316 µM
[28] = second compound 10 µM, first compound 0.1 µM
[29] = second compound 10 µM, first compound 0.316 µM
[30] = second compound 10 µM, first compound 1 µM
[31] = second compound 0.0316 µM, first compound 0.00316 µM
[32] = second compound 0.0316 µM, first compound 0.01 µM
[33] = second compound 0.1 µM, first compound 0.00316 µM
[34] = second compound 0.1 µM, first compound 0.01 µM
[35] = second compound 0.316 µM, first compound 0.00316 µM
[36] = second compound 0.316 µM, first compound 0.01 µM
[37] = second compound 1 µM, first compound 0.00316 µM
[38] = second compound 1 µM, first compound 0.01 µM
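Note: viability read after seven days of compound exposure.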

## NC1c2ccccc2OC12CCN(c1cnc3c(N4CCCc5ncccc54)n[nH]c3n1)CC2 (stereo not drawn) + C#Cc1c(F)ccc2cc(O)cc(-c3ncc4c(N5CC6CCC(C5)N6)nc(OCC56CCCN5CC(F)C6)nc4c3F)c12
[1]
  IC50: 1160 nM
[2]
  IC50: 642 nM
[3]
  IC50: 231 nM
[4]
  IC50: 72.1 nM
[5]
  IC50: < 31.6 nM
[6]
  IC50: < 31.6 nM
[7]
  viability, T/C: 92.1%
[8]
  viability, T/C: 81.1%
[9]
  viability, T/C: 60.6%
[10]
  viability, T/C: 53%
Second compound 0.0316 µM, first compound 3.16 µM
  viability, T/C: 40.9%
Second compound 0.0316 µM, first compound 10 µM
  viability, T/C: 25.8%
[11]
  viability, T/C: 87.8%
[12]
  viability, T/C: 69.8%
[13]
  viability, T/C: 54.9%
[14]
  viability, T/C: 46.2%
Second compound 0.1 µM, first compound 3.16 µM
  viability, T/C: 37.9%
Second compound 0.1 µM, first compound 10 µM
  viability, T/C: 22.5%
[15]
  viability, T/C: 82%
[16]
  viability, T/C: 61.8%
[17]
  viability, T/C: 42.8%
[18]
  viability, T/C: 37.2%
Second compound 0.316 µM, first compound 3.16 µM
  viability, T/C: 29.4%
Second compound 0.316 µM, first compound 10 µM
  viability, T/C: 21.2%
[19]
  viability, T/C: 69%
[20]
  viability, T/C: 38.5%
[21]
  viability, T/C: 32.9%
[22]
  viability, T/C: 26.8%
Second compound 1 µM, first compound 3.16 µM
  viability, T/C: 21.3%
Second compound 1 µM, first compound 10 µM
  viability, T/C: 14.9%
[23]
  viability, T/C: 43.3%
[24]
  viability, T/C: 25.7%
[25]
  viability, T/C: 22.9%
[26]
  viability, T/C: 18.8%
Second compound 3.16 µM, first compound 3.16 µM
  viability, T/C: 21.1%
Second compound 3.16 µM, first compound 10 µM
  viability, T/C: 15.9%
[27]
  viability, T/C: 30.3%
[28]
  viability, T/C: 16.4%
[29]
  viability, T/C: 24%
[30]
  viability, T/C: 19.1%
Second compound 10 µM, first compound 3.16 µM
  viability, T/C: 17.5%
Second compound 10 µM, first compound 10 µM
  viability, T/C: 9.27%

## C=CC(=O)Nc1cc(Nc2nccc(-c3cn(C)c4ccccc34)n2)c(OC)cc1N(C)CCN(C)C + C=CC(=O)N1CCN(c2nc(OCC3CCCN3C)nc3c(F)c(-c4nc(N)cc(C)c4C(F)(F)F)c(Cl)cc23)C(C)C1
Curve of first compound, second compound 0.00316 µM
  IC50: 320 nM
Curve of first compound, second compound 0.01 µM
  IC50: 352 nM
[1]
  IC50: 539 nM
[2]
  IC50: 377 nM
[3]
  IC50: 361 nM
[4]
  IC50: 310 nM
Second compound 0.00316 µM, first compound 0.00316 µM
  viability, T/C: 93.5%
Second compound 0.00316 µM, first compound 0.01 µM
  viability, T/C: 90.7%
Second compound 0.00316 µM, first compound 0.0316 µM
  viability, T/C: 80.1%
Second compound 0.00316 µM, first compound 0.1 µM
  viability, T/C: 82.9%
Second compound 0.00316 µM, first compound 0.316 µM
  viability, T/C: 49.8%
Second compound 0.00316 µM, first compound 1 µM
  viability, T/C: 38.9%
Second compound 0.01 µM, first compound 0.00316 µM
  viability, T/C: 91.6%
Second compound 0.01 µM, first compound 0.01 µM
  viability, T/C: 84.5%
Second compound 0.01 µM, first compound 0.0316 µM
  viability, T/C: 83.5%
Second compound 0.01 µM, first compound 0.1 µM
  viability, T/C: 76.4%
Second compound 0.01 µM, first compound 0.316 µM
  viability, T/C: 50.6%
Second compound 0.01 µM, first compound 1 µM
  viability, T/C: 38.1%
[31]
  viability, T/C: 91.1%
[32]
  viability, T/C: 88.2%
[7]
  viability, T/C: 74.4%
[8]
  viability, T/C: 67%
[9]
  viability, T/C: 51.5%
[10]
  viability, T/C: 46.8%
[33]
  viability, T/C: 87.8%
[34]
  viability, T/C: 84.5%
[11]
  viability, T/C: 90.4%
[12]
  viability, T/C: 75.8%
[13]
  viability, T/C: 53.4%
[14]
  viability, T/C: 34.1%
[35]
  viability, T/C: 87%
[36]
  viability, T/C: 94%
[15]
  viability, T/C: 77.2%
[16]
  viability, T/C: 70.2%
[17]
  viability, T/C: 52%
[18]
  viability, T/C: 35.5%
[37]
  viability, T/C: 90.3%
[38]
  viability, T/C: 78.7%
[19]
  viability, T/C: 84.9%
[20]
  viability, T/C: 71%
[21]
  viability, T/C: 49.7%
[22]
  viability, T/C: 32.5%

## CCN1CCN(Cc2ccc(Nc3ncc(F)c(-c4cc(F)c5nc(C)n(C(C)C)c5c4)n3)nc2)CC1 + C#Cc1c(F)ccc2cc(O)cc(-c3ncc4c(N5CC6CCC(C5)N6)nc(OCC56CCCN5CC(F)C6)nc4c3F)c12
[1]
  IC50: > 1000 nM
[2]
  IC50: > 1000 nM
[3]
  IC50: > 1000 nM
[4]
  IC50: 905 nM
[5]
  IC50: 415 nM
[6]
  IC50: 76.7 nM
[31]
  viability, T/C: 108%
[32]
  viability, T/C: 93%
[7]
  viability, T/C: 101%
[8]
  viability, T/C: 105%
[9]
  viability, T/C: 101%
[10]
  viability, T/C: 71%
[33]
  viability, T/C: 107%
[34]
  viability, T/C: 104%
[11]
  viability, T/C: 93.3%
[12]
  viability, T/C: 97.3%
[13]
  viability, T/C: 97.1%
[14]
  viability, T/C: 75%
[35]
  viability, T/C: 107%
[36]
  viability, T/C: 101%
[15]
  viability, T/C: 103%
[16]
  viability, T/C: 99.3%
[17]
  viability, T/C: 86.7%
[18]
  viability, T/C: 65%
[37]
  viability, T/C: 105%
[38]
  viability, T/C: 92.6%
[19]
  viability, T/C: 93.9%
[20]
  viability, T/C: 89.5%
[21]
  viability, T/C: 75.9%
[22]
  viability, T/C: 46.9%
Second compound 3.16 µM, first compound 0.00316 µM
  viability, T/C: 87.2%
Second compound 3.16 µM, first compound 0.01 µM
  viability, T/C: 88.6%
[23]
  viability, T/C: 79.5%
[24]
  viability, T/C: 69.4%
[25]
  viability, T/C: 53.1%
[26]
  viability, T/C: 40%
Second compound 10 µM, first compound 0.00316 µM
  viability, T/C: 67%
Second compound 10 µM, first compound 0.01 µM
  viability, T/C: 60.9%
[27]
  viability, T/C: 57.6%
[28]
  viability, T/C: 46.2%
[29]
  viability, T/C: 40.6%
[30]
  viability, T/C: 26.6%

## CCn1c(-c2cccnc2C(C)OC)c2c3cc(ccc31)N1CCOC(CC(NC(=O)C(C(C)C)N(C)C(=O)C3(F)CCN(C(=O)C#CC(C)(C)N(C)C)CC3)C(=O)N3CCCC(N3)C(=O)OCC(C)(C)C2)C1 (stereo not drawn)
Compound 0.000949 µM
  viability, T/C: 82.9% [middle of 8 runs]
Compound 0.003 µM
  viability, T/C: 80.1% [middle of 8 runs]
Compound 0.00949 µM
  viability, T/C: 79.1% [middle of 8 runs]
Compound 0.03 µM
  viability, T/C: 75.8% [middle of 8 runs]
Compound 0.0949 µM
  viability, T/C: 68.4% [middle of 8 runs]
Compound 0.3 µM
  viability, T/C: 67.3% [middle of 8 runs]
Compound alone, run of 08/20/2024
  IC50: > 300 nM
